This data set can be described thus: Mouse oral single-dose pharmacokinetic study with Compound EB. Format: in vivo. The conditions noted are these: 100 mg/kg single oral gavage. The method, then: Mouse Oral Single-Dose Pharmacokinetic Study with Compound EB
Determination of the Plasma profile of Compound EB following single oral gavage administration to male mice:
Test compounds were suspended in 1% HPMC using a tissue homogenizer to minimize particles and maximize uniformity of the suspension and stored at 4° C. The formulations was thoroughly mixed just prior to administration. A dose of 100 mg/kg of Compound EB or vehicle (1% HPMC) was administered to male mice by single oral gavage. Mice were placed in urine collectors after dosing for 5 hours, and the total urine output for 5 hours was collected. Samples were frozen at −80° C. until analyzed using LC/MS-MS.
At 0, 0.5, 1, 2, 4, 6, 8 and 24 hours post-dose time points, blood samples (0.4 mL) were collected by orbital sinus bleeds in K3EDTA tubes. The blood samples were centrifuged within 30 minutes of collection under refrigeration (2-8° C.) for 7 minutes at 6000 rpm. Following centrifugation, the plasma were harvested into a single tube for each animal at each time point and immediately frozen at −80° C. until analyzed using LC/MS-MS. Data was subjected to pharmacokinetic analyses using WinNonlin Standard (v2.1, Pharsight Corporation) and Microsoft EXCEL.
1. Mice received single oral gavage of Compound EB, 100 mg/kg, and plasma was collected at certain times.
2. Plasma was stored at −80° C. until the day of analysis.
3. Samples were thawed on 37° C. bath for 5 min and vortexed at top speed for 10 sec.
4. Mouse plasma, 0.1 mL was mixed with 0.2 mL Acetonitrile, vortexed 1 min, spun down 14000 rpm, 17000 g, at 4° C., for 25 min.
5. Supernatants were filtered through 0.45 micron, 4 mm, PTFE membrane syringe filter (Phenomenex # AF0-3102-52), and 13 microL were injected and resolved on Luna 3 micron, 100 A pore, C8(2), 150×3 mm, reverse phase column (Phenomenex#00F-4248-YO, SN#259151-7) in 50 min linear gradient from 40% to 69% of (0.1% Formic Acid, 89.9% Acetonitrile, 10% Methanol) at 0.25 mL/min, 100 bar, 37° C. column temperature, method 406975M1, Sequence 1029-08A, Agilent 1100 LC-MS.
All samples were run in duplicate, 210 nm and 230 nm Absorbances, Negative and Positive ionization spectrograms recorded.
Step 1. Plasma from “Vehicle” animals (pooled), 0.095 mL, was mixed with 0.005 mL 20× stock of Compound EB in Methanol to make 500 microM, 250 microM, 125 microM, . . . , concentrations of Compound EB in plasma.
For example: 95 microL plasma+5 microL of 10 mM Compound EB in methanol=0.1 mL plasma with 500 microM Compound EB.
Step 2. Samples from step 1 were vortexed for 10 sec at top speed.
Step 3. 0.2 mL of acetonitrile was added to all samples from Step 2, and all vials were vortexed at top speed for 1 min.
Step 4. All samples from step 3 were spun down 14000 rpm, 17000 g, at 4° C., for 25 min.
Step 5. Supernatants were filtered through 0.45 micron, 4 mm, PTFE membrane syringe filter (Phenomenex # AF0-3102-52), 13 microL were injected and resolved on Luna 3 micron, 100 A pore, C8(2), 150×3 mm, reverse phase column

Several values for one entry are separate records, joined by “and”; a condition that tells them apart may be missing. Equal entries are not always repeated. Where two headings read alike, the source gives them in different places.

For the molecule `Cc1cccc(C)c1COc1cccc(-c2nnn[nH]2)c1` [Compound EB, 5-(3-(2,6-Dimethylbenzyloxy)phenyl)-1H-tetrazole], under “LC-MS”, the “Detection in mouse plasma (in words)” value is listed as “readily detected”. For the same molecule, the “Compound EB concentr. in plasma, individual animals” value is, setting by setting: (male mice, bleed time 0 HR) 0 µg/mL; (male mice, bleed time 0.5 HR) 207.5 µg/mL and 134.2 µg/mL; (male mice, bleed time 1 HR) 139.7 µg/mL and 157.6 µg/mL; (male mice, bleed time 2 HR) 139.9 µg/mL and 187.6 µg/mL and 82.4 µg/mL; (male mice, bleed time 4 HR) 74.9 µg/mL and 92.1 µg/mL and 39.6 µg/mL; (male mice, bleed time 6 HR) 79.9 µg/mL and 48 µg/mL. In addition, the “Compound EB concentr. in plasma, individual animals” value is, setting by setting: (male mice, bleed time 8 HR) 18.2 µg/mL and 10.7 µg/mL and 0 µg/mL; (male mice, bleed time 24 HR) 0 µg/mL. Also, the AUC0-24 result (male mice, plasma) is on record as “AUC0-24: 796 μg/mL”. Also, the concentration at 0 h by setting is: (male, mouse, plasma, po, 100 mg/kg, male mice, 0 hr, read-out: Compound EB concentration in plasma, average) 0 ng/mL; (male, mouse, plasma, po, 100 mg/kg, male mice, bleed time 0 HR, read-out: Compound EB concentr. in plasma, individual animals) 0 ng/mL. Further, the concentration at 0.5 h (male, mouse, plasma, po, 100 mg/kg, male mice, 0.5 hr, read-out: Compound EB concentration in plasma, average) worked out at 183 µg/mL and the concentration at 0.5 h (male, mouse, plasma, po, 100 mg/kg, male mice, bleed time 0.5 HR, read-out: Compound EB concentr. in plasma, individual animals) was found to be 206 µg/mL. Also, the concentration at 1 h by setting is: (male, mouse, plasma, po, 100 mg/kg, male mice, 1 hr, read-out: Compound EB concentration in plasma, average) 169 µg/mL; (male, mouse, plasma, po, 100 mg/kg, male mice, bleed time 1 HR, read-out: Compound EB concentr. in plasma, individual animals) 210 µg/mL. Also, the concentration at 2 h (male, mouse, plasma, po, 100 mg/kg, male mice, 2 hr) is 137 µg/mL. The concentration at 4 h (male, mouse, plasma, po, 100 mg/kg, male mice, 4 hr) amounted to 69 µg/mL. The concentration at 6 h (male, mouse, plasma, po, 100 mg/kg, male mice, 6 hr, read-out: Compound EB concentration in plasma, average) worked out at 62 µg/mL and the concentration at 6 h (male, mouse, plasma, po, 100 mg/kg, male mice, bleed time 6 HR, read-out: Compound EB concentr. in plasma, individual animals) amounted to 58.7 µg/mL. Moreover, under “male, mouse, plasma, po, 100 mg/kg, male mice, 8 hr”, the concentration at 8 h was 10 µg/mL. For the same molecule, the concentration at 24 h came out at 3 µg/mL (male, mouse, plasma, po, 100 mg/kg, male mice, 24 hr, read-out: Compound EB concentration in plasma, average) and 0 µg/mL (male, mouse, plasma, po, 100 mg/kg, male mice, bleed time 24 HR, read-out: Compound EB concentr. in plasma, individual animals). Further, under “mouse, male mice, plasma”, the Cmax (commonly the highest concentration seen after dosing) came to 210 µg/mL.

The record behind these values is patent US8889724B2, “Tetrazole compounds for reducing uric acid” (Wellstat Therapeutics Corporation, priority 2008, dated 2014).
